Experimental data published in patent US8530489B2 (Vertex Pharmaceuticals Incorporated, priority 2006, dated 2013).

Legend:
Format in all cases: biochemical
PLK1 = PLK1 (Homo sapiens, UniProt P53350); test: PLK1 Inhibition Assay I (radioactive-phosphate incorporation); settings: Ki(app); PLK1 Inhibition Assay I or II (table does not say which)
Procedure, shortened: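 Ki(app) values came from non-linear regression of initial rates after background subtraction, with phosphopeptide measured by phosphocellulose filter binding and scintillation counting. PLK1 at 2 nM was preincubated with compound (typically from 10 μM, 2-fold dilutions) for 10 min, then run 240 min at 25° C with 350 μM [γ-33P]ATP and 450 μM peptide substrate in HEPES pH 7.5 buffer.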

PLK2 = PLK2 (Homo sapiens, UniProt Q9NYY3); test: PLK2 Inhibition Assay (radioactive-phosphate incorporation); settings: selectivity ratio, PLK2 over PLK1
Experimental: (§1) The compounds of the present invention are evaluated as inhibitors of human PLK kinase using the following assays.
Compounds were screened for their ability to inhibit PLK2 using a radioactive-phosphate incorporation assay. Assays were carried out in a mixture of 25 mM HEPES (pH 7.5), 10 mM MgCl2, 0.1% BSA, and 2 mM DTT. Final substrate concentrations were 200 μM [γ-33P]ATP (57 mCi 33P ATP/mmol ATP, Amersham Pharmacia Biotech/Sigma Chemicals) and 300 μM peptide (KKKISDELMDATFADQEAK) [SEQ ID:3]. Assays were carried out at 25° C. in the presence of 25 nM PLK2. An assay stock buffer solution was prepared containing all of the reagents listed above, with the exception of ATP and the test compound of interest. 30 μL of the stock solution was placed in a 96 well plate followed by addition of 2 μL of DMSO stock containing serial dilutions of the test compound (typically starting from a final concentration of 10 μM with 2-fold serial dilutions) in duplicate (final DMSO concentration 5%). The plate was pre-incubated for 10 minutes at 25° C. and the reaction initiated by addition of 8 μL [γ-33P]ATP (final concentration 200 μM).
(§2) The reaction was stopped after 90 minutes by the addition of 100 μL 0.14 M phosphoric acid. A multiscreen phosphocellulose filter 96-well plate (Millipore, Cat No. MAPHN0B50) was pretreated with 100 μL 0.2M phosphoric acid prior to the addition of 125 μL of the stopped assay mixture. The plate was washed with 4×200 μL 0.2 M phosphoric acid. After drying, 100 μL Optiphase ‘SuperMix’ liquid scintillation cocktail (Perkin Elmer) was added to the well prior to scintillation counting (1450 Microbeta Liquid Scintillation Counter, Wallac).
(§3) After removing mean background values for all of the data points, Ki(app) data were calculated from non-linear regression analysis of the initial rate data using the Prism software package (GraphPad Prism version 3.0cx for Macintosh, GraphPad Software, San Diego Calif., USA).

PLK3 (S38-A340) = biological target: T1, PLK3 (S38-A340) (Homo sapiens, UniProt Q9H4B4); test: PLK3 Inhibition Assay (radioactive-phosphate incorporation); settings: selectivity ratio, PLK3 over PLK1
T1 construct: in the presence of 5 nM PLK3 (S38-A340)
Experimental: as §1
Compounds were screened for their ability to inhibit PLK3 using a radioactive-phosphate incorporation assay. Assays were carried out in a mixture of 25 mM HEPES (pH 7.5), 10 mM MgCl2, and 1 mM DTT. Final substrate concentrations were 75 μM [γ-33P]ATP (60 mCi 33P ATP/mmol ATP, Amersham Pharmacia Biotech/Sigma Chemicals) and 10 μM peptide (SAM68 protein Δ332-443). Assays were carried out at 25° C. in the presence of 5 nM PLK3 (S38-A340). An assay stock buffer solution was prepared containing all of the reagents listed above, with the exception of ATP and the test compound of interest. 30 μL of the stock solution was placed in a 96 well plate followed by addition of 2 μL of DMSO stock containing serial dilutions of the test compound (typically starting from a final concentration of 10 μM with 2-fold serial dilutions) in duplicate (final DMSO concentration 5%). The plate was pre-incubated for 10 minutes at 25° C. and the reaction initiated by addition of 8 μL [γ-33P]ATP (final concentration 75 μM).
as §2, with “60” for “90”, “0.14M” for “0.14 M”
as §3

T1 sequence (Q9H4B4 58-340 limits assumed): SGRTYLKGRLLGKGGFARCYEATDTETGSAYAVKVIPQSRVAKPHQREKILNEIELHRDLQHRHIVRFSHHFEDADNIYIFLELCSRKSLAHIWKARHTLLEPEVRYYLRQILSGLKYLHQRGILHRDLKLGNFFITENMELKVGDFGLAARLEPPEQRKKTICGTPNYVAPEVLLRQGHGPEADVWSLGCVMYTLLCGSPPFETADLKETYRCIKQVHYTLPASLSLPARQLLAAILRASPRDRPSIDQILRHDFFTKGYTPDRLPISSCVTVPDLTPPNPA
Chain of PLK2 (Q9NYY3 whole entry): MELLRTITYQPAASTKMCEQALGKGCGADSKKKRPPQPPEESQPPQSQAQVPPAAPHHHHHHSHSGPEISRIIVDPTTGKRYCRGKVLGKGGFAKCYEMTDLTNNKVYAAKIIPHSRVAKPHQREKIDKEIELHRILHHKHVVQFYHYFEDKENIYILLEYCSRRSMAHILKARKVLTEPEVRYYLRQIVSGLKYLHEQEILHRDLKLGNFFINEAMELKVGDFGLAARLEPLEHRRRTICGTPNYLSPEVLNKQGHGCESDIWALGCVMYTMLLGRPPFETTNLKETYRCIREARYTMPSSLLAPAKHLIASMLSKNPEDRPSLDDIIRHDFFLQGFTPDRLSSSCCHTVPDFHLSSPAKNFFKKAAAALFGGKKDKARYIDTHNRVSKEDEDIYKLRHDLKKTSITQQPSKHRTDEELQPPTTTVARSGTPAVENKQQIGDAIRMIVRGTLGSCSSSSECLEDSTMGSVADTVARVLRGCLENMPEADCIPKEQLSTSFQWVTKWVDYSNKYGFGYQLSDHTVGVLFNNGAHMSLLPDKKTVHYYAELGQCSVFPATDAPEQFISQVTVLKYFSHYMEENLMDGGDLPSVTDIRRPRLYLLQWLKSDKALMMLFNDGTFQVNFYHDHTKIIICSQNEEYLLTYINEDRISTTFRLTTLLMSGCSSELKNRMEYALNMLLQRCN
Chain of PLK1 (P53350 whole entry): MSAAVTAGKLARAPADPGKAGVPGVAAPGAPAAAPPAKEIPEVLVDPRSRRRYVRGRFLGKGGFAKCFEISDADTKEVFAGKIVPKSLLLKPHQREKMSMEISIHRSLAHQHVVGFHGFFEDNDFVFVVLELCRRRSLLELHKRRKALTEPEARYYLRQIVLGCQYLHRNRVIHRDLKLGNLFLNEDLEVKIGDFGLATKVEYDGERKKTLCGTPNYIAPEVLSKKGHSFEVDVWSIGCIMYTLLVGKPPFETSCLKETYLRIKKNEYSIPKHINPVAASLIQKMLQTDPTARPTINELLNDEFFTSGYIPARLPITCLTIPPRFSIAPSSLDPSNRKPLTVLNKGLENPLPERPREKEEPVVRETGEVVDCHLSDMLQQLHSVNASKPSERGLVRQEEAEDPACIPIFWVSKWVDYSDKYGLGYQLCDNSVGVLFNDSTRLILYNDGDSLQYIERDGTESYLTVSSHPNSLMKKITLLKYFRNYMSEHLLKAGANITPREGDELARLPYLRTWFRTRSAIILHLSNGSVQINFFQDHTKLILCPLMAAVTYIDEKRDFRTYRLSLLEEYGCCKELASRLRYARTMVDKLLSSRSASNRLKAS

Ki (PLK1)	Ki(PLK2)/Ki(PLK1) (PLK2)	Ki(PLK3)/Ki(PLK1) (PLK3 (S38-A340))	Structure (SMILES)
< 3 nM	1813	581	C[C@H]1CN(c2ccc([C@@H](C)Nc3ncc(C#N)c(-c4c[nH]c5ncc(C(F)(F)F)cc45)n3)cn2)CCN1 [Compound I-273, 2-((R)-1-(6-((S)-3-methylpiperazin-1-yl)pyridin-3-yl)ethylamino)-4-(5-(trifluoromethyl)-1H-pyrrolo[2,3-b]pyridin-3-yl)pyrimidine-5-carbonitrile]
< 3 nM	1000	456	CC(Nc1ncc(C#N)c(-c2c[nH]c3ncc(C(F)(F)F)cc23)n1)c1ccc(N2CCN(C)CC2)nc1 (stereo not drawn) [Compound I-139, 2-(1-(6-(4-methylpiperazin-1-yl)pyridin-3-yl)ethylamino)-4-(5-(trifluoromethyl)-1H-pyrrolo[2,3-b]pyridin-3-yl)pyrimidine-5-carbonitrile]
< 3 nM	914	586	CC(Nc1ncc(C#N)c(-c2c[nH]c3ncc(C(F)(F)F)cc23)n1)c1ccc(N2CCNCC2)nc1 (stereo not drawn) [Compound I-167, 2-(1-(6-(piperazin-1-yl)pyridin-3-yl)ethylamino)-4-(5-(trifluoromethyl)-1H-pyrrolo[2,3-b]pyridin-3-yl)pyrimidine-5-carbonitrile]
< 3 nM	523	186	C[C@@H](Nc1ncc(C#N)c(-c2c[nH]c3ncc(C(F)(F)F)cc23)n1)c1ccc(N2CCN(C)CC2)nc1 (single isomer, unassigned) [Compound I-147]

The remaining lines, values behind:

Structure (SMILES)	Ki (PLK1)	Ki(PLK2)/Ki(PLK1) (PLK2)	Ki(PLK3)/Ki(PLK1) (PLK3 (S38-A340))
C[C@@H](Nc1ncc(C#N)c(-c2c[nH]c3ncc(C(F)(F)F)cc23)n1)c1ccc(N2CCN(C)CC2)c(F)c1 [Compound I-142, 2-((R)-1-(3-fluoro-4-(4-methylpiperazin-1-yl)phenyl)ethylamino)-4-(5-(trifluoromethyl)-1H-pyrrolo[2,3-b]pyridin-3-yl)pyrimidine-5-carbonitrile]	< 3 nM	<30	<23
CC(Nc1ncc(C#N)c(-c2c[nH]c3ncc(C(F)(F)F)cc23)n1)c1ccc(N2CCN(C)CC2)cc1 (stereo not drawn) [Compound I-102, 2-(1-(4-(4-methylpiperazin-1-yl)phenyl)ethylamino)-4-(5-(trifluoromethyl)-1H-pyrrolo[2,3-b]pyridin-3-yl)pyrimidine-5-carbonitrile]	< 3 nM	113	28
C[C@@H](Nc1ncc(C#N)c(-c2c[nH]c3ncc(C(F)(F)F)cc23)n1)c1ccc(N2CCN(C)CC2)cc1F [Compound I-149, 2-((R)-1-(2-fluoro-4-(4-methylpiperazin-1-yl)phenyl)ethylamino)-4-(5-(trifluoromethyl)-1H-pyrrolo[2,3-b]pyridin-3-yl)pyrimidine-5-carbonitrile]	< 3 nM	<130	<100
CNCCNc1ccc(C(C)Nc2ncc(C#N)c(-c3c[nH]c4ncc(C(F)(F)F)cc34)n2)cn1 (stereo not drawn) [Compound I-278, 2-(1-(6-(2-(methylamino)ethylamino)pyridin-3-yl)ethylamino)-4-(5-(trifluoromethyl)-1H-pyrrolo[2,3-b]pyridin-3-yl)pyrimidine-5-carbonitrile]	< 3 nM	208	142
C[C@@H](Nc1ncc(C#N)c(-c2c[nH]c3ncc(C(F)(F)F)cc23)n1)c1cnc(N[C@H]2CCN(C)C2)nc1 [Compound I-268, 2-((R)-1-(2-((S)-1-methylpyrrolidin-3-ylamino)pyrimidin-5-yl)ethylamino)-4-(5-(trifluoromethyl)-1H-pyrrolo[2,3-b]pyridin-3-yl)pyrimidine-5-carbonitrile]	< 3 nM	293	141
